Measured values published in US20130096067A1, “DROSOPHILA TUMOR STEM CELL MODEL AND USES THEREOF” (priority 2011, published 2013).
Like-named read-outs stand apart in the source and are kept apart here. Peptide text beside a SMILES is read from it. * marks the point of attachment. Boc = CC(C)(C)OC(=O)*

Test system: Raf-1^gof intestinal tumors
Conditions: for Log2 (fold) (luciferase activity, log2 of the fold difference relative to DMSO controls) / Fold (luciferase activity, fold difference relative to DMSO controls): screen of 480 ICCB compounds in vials, compounds fed to flies with one-day old Raf-1^gof tumors, esg-Gal4 luciferase
[1] = ICCB compounds fed in vials to flies with one-day old Raf-1^gof tumors, assessed three days later
[2] = ICCB compounds fed in vials to flies with one-day old Raf-1^gof tumors, assessed three days later, averaged from multiple wells
[3] = assessed three days later, averaged from multiple wells
Also: test concentration or dose not given here.

COC(=O)C1=C(C)NC(C)=C([N+](=O)[O-])C1c1ccccc1C(F)(F)F (stereo not drawn) [BAY K-8644]
Log2 (fold) of luciferase activity relative to DMSO controls [1]: −0.027
Fold (luciferase activity relative to DMSO controls) [2]: 0.982 fold

NC(=NCc1ccccc1)NC(=O)c1nc(Cl)c(N)nc1N [BENZAMIL]
Log2 (fold) of luciferase activity relative to DMSO controls [1]: 0.006
Fold (luciferase activity relative to DMSO controls) [2]: 1.004 fold

CC(C)COCC(CN(Cc1ccccc1)c1ccccc1)N1CCCC1 (stereo not drawn) [BEPRIDIL]
Log2 (fold) of luciferase activity relative to DMSO controls [1]: −0.054
Fold (luciferase activity relative to DMSO controls) [2]: 0.963 fold

COc1ccc2c(c1)c(CC(=O)N1CCOCC1)c(C)n2C(=O)c1ccc(Cl)cc1 [BML-190]
Log2 (fold) of luciferase activity relative to DMSO controls [1]: −0.202
Fold (luciferase activity relative to DMSO controls) [2]: 0.869 fold

CC(C)C[C@H](NC(=O)[C@@H](O)[C@H](N)Cc1ccccc1)C(=O)O [Bestatin]
Log2 (fold) (luciferase activity, log2 of the fold difference relative to DMSO controls) (assessed three days later): −0.688
Fold (luciferase activity, fold difference relative to DMSO controls) [3]: 0.621

C=C(C)[C@@H]1CC[C@]2(C(=O)O)CC[C@]3(C)[C@H](CC[C@@H]4[C@@]5(C)CC[C@H](O)C(C)(C)[C@@H]5CC[C@]43C)[C@@H]12 [Betulinic acid]
Log2 (fold) (luciferase activity, log2 of the fold difference relative to DMSO controls) (assessed three days later): −0.708
Fold (luciferase activity, fold difference relative to DMSO controls) [3]: 0.612

Cc1ccc2c(c1)C(=O)C1(O)CCN(c3ccccc3)C1=N2 (stereo not drawn) [Blebbistatin]
Log2 (fold) of luciferase activity relative to DMSO controls [1]: 0.196
Fold (luciferase activity relative to DMSO controls) [2]: 1.146 fold

CC(C)[C@H](NC(=O)CNC(=O)OC(C)(C)C)C(=O)N[C@H](C=O)C(C)C [Boc-GVV-CHO] (Boc-Gly-Val-Val-aldehyde)
Log2 (fold) (luciferase activity, log2 of the fold difference relative to DMSO controls) (assessed three days later): −0.696
Fold (luciferase activity, fold difference relative to DMSO controls) [3]: 0.617

Nc1ncnc2c1nc(Br)n2C1O[C@H]2COP(=O)(O)O[C@@H]2[C@@H]1O (stereo partly drawn) [Bromo-cAMP [8-Bromo-cAMP]]
Log2 (fold) of luciferase activity relative to DMSO controls [1]: −0.045
Fold (luciferase activity relative to DMSO controls) [2]: 0.969 fold

Nc1nc2c(nc(Br)n2[C@@H]2O[C@@H]3COP(=O)(O)O[C@H]3[C@H]2O)c(=O)[nH]1 [Bromo-cGMP [8-Bromo-cGMP]]
Log2 (fold) of luciferase activity relative to DMSO controls [1]: 0.021
Fold (luciferase activity relative to DMSO controls) [2]: 1.015 fold

CCCCCCCCCCCCC/C=C/[C@@H](O)[C@H](CO)NC(C)=O [C2 CERAMIDE]
Log2 (fold) (luciferase activity, log2 of the fold difference relative to DMSO controls) (assessed three days later): −0.493
Fold (luciferase activity, fold difference relative to DMSO controls) [3]: 0.711

CCCCCCCCCCCCCCC[C@@H](O)[C@H](CO)NC(C)=O [C2 DIHYDROCERAMIDE]
Log2 (fold) (luciferase activity, log2 of the fold difference relative to DMSO controls) (assessed three days later): −0.466
Fold (luciferase activity, fold difference relative to DMSO controls) [3]: 0.724

CCCCCCCCCCCCC/C=C/[C@@H](O)[C@H](CO)NC(=O)CCCCCCC [C8 CERAMIDE]
Log2 (fold) (luciferase activity, log2 of the fold difference relative to DMSO controls) (assessed three days later): −0.427
Fold (luciferase activity, fold difference relative to DMSO controls) [3]: 0.744

CCCCCCCCCCCCC/C=C/[C@@H](O)[C@H](CO)NCCCCCCCC [C8 CERAMINE]
Log2 (fold) (luciferase activity, log2 of the fold difference relative to DMSO controls) (assessed three days later): −0.302
Fold (luciferase activity, fold difference relative to DMSO controls) [3]: 0.811

CCCCCCCCCCCCCCC[C@@H](O)[C@H](CO)NC(=O)CCCCCCC [C8 DIHYDROCERAMIDE]
Log2 (fold) (luciferase activity, log2 of the fold difference relative to DMSO controls) (assessed three days later): −0.423
Fold (luciferase activity, fold difference relative to DMSO controls) [3]: 0.746

CCCCCCCCCCCCC/C=C/[C@@H](O)[C@H](CO)NC(=O)CCCCCCCCCCCCCCC [C16 CERAMIDE]
Log2 (fold) (luciferase activity, log2 of the fold difference relative to DMSO controls) (assessed three days later): −0.496
Fold (luciferase activity, fold difference relative to DMSO controls) [3]: 0.709

CCCCCCCCCCCCCCCCOC[C@H](COP(=O)([O-])OCC[N+](C)(C)C)OC(=O)NC [C-PAF]
Log2 (fold) of luciferase activity relative to DMSO controls [1]: 0.119
Fold (luciferase activity relative to DMSO controls) [2]: 1.086 fold

CCCNC(=O)[C@H]1O[C@@H]1C(=O)N[C@H](C(=O)N1CCC[C@H]1C(=O)OC)[C@@H](C)CC [CA-074-Me]
Log2 (fold) of luciferase activity relative to DMSO controls [1]: −0.114
Fold (luciferase activity relative to DMSO controls) [2]: 0.924 fold

O=C(/C=C/c1ccc(O)c(O)c1)OCCc1ccccc1 [CAPE]
Log2 (fold) (luciferase activity, log2 of the fold difference relative to DMSO controls) (assessed three days later): −0.324
Fold (luciferase activity, fold difference relative to DMSO controls) [3]: 0.799

CCCCC[C@H](O)/C=C/[C@@H]1[C@H]2C/C(=C/CCCC(=O)O)C[C@H]2C[C@H]1O [CARBACYCLIN]
Log2 (fold) (luciferase activity, log2 of the fold difference relative to DMSO controls) (assessed three days later): −0.283
Fold (luciferase activity, fold difference relative to DMSO controls) [3]: 0.822

N#C/C(=C\c1ccc(O)c(O)c1)C(=O)OC/C=C/c1ccccc1 [CDC]
Log2 (fold) (luciferase activity, log2 of the fold difference relative to DMSO controls) (assessed three days later): −0.360
Fold (luciferase activity, fold difference relative to DMSO controls) [3]: 0.779

O=C1CSC(c2ccccc2Cl)c2cc(Cl)ccc2N1 (stereo not drawn) [CGP-37157]
Log2 (fold) of luciferase activity relative to DMSO controls [1]: −0.195
Fold (luciferase activity relative to DMSO controls) [2]: 0.873 fold

CC1(COc2ccc(CC3SC(=O)NC3=O)cc2)CCCCC1 (stereo not drawn) [CIGLITAZONE]
Log2 (fold) of luciferase activity relative to DMSO controls [1]: 0.038
Fold (luciferase activity relative to DMSO controls) [2]: 1.027 fold

CC(C)NCC(O)c1ccc(N)c(C#N)c1 (stereo not drawn) [CIMATEROL]
Log2 (fold) (luciferase activity, log2 of the fold difference relative to DMSO controls) (assessed three days later): −0.598
Fold (luciferase activity, fold difference relative to DMSO controls) [3]: 0.661

c1ccc(C2CC2)c(OCC2=NCCN2)c1 [CIRAZOLINE]
Log2 (fold) of luciferase activity relative to DMSO controls [1]: 0.121
Fold (luciferase activity relative to DMSO controls) [2]: 1.088 fold

Clc1ccc(-c2nc3sccn3c2/C=N/OCc2ccc(Cl)c(Cl)c2)cc1 [CITCO]
Log2 (fold) of luciferase activity relative to DMSO controls [1]: −0.162
Fold (luciferase activity relative to DMSO controls) [2]: 0.894 fold

CCOC(=O)C(C)(C)Oc1ccc(Cl)cc1 [CLOFIBRATE]
Log2 (fold) of luciferase activity relative to DMSO controls [1]: 0.221
Fold (luciferase activity relative to DMSO controls) [2]: 1.165 fold

O=C([O-])CCC/C=C\CC1C(O)CC(O)C1/C=C/C(O)COc1cccc(Cl)c1.[Na+] (stereo not drawn) [CLOPROSTENOL Na]
Log2 (fold) of luciferase activity relative to DMSO controls [1]: 0.101
Fold (luciferase activity relative to DMSO controls) [2]: 1.073 fold

CC(=O)C1=C(O)[C@@H]2[C@H]3c4c[nH]c5cccc(c45)C[C@H]3C(C)(C)N2C1=O [CYCLOPIAZONIC ACID]
Log2 (fold) of luciferase activity relative to DMSO controls [1]: 0.072
Fold (luciferase activity relative to DMSO controls) [2]: 1.051 fold

C/C=C/C/C=C/CCC(=O)[C@H]1O[C@H]1C(N)=O [Cerulenin]
Log2 (fold) (luciferase activity, log2 of the fold difference relative to DMSO controls) (assessed three days later): −0.474
Fold (luciferase activity, fold difference relative to DMSO controls) [3]: 0.720

COc1cc(/C=C/C(=O)CC(=O)/C=C/c2ccc(O)c(OC)c2)ccc1O [Curcumin]
Log2 (fold) of luciferase activity relative to DMSO controls [1]: 0.112
Fold (luciferase activity relative to DMSO controls) [2]: 1.081 fold

CCCCC[C@H](O)C/C=C1/C(=O)C=C[C@@H]1C/C=C\CCCC(=O)O [D12-PROSTAGLANDIN J2]
Fold (luciferase activity relative to DMSO controls) (in vivo): 0.988 fold
Log2 (fold) of luciferase activity relative to DMSO controls (in vivo): −0.017

O=C1CN(/N=C/c2ccc(-c3ccc([N+](=O)[O-])cc3)o2)C(O)=N1 [DANTROLENE]
Log2 (fold) of luciferase activity relative to DMSO controls [1]: −0.098
Fold (luciferase activity relative to DMSO controls) [2]: 0.934 fold

CC1=NS(=O)(=O)c2cc(Cl)ccc2N1 [DIAZOXIDE]
Log2 (fold) (luciferase activity, log2 of the fold difference relative to DMSO controls) (assessed three days later): −0.257
Fold (luciferase activity, fold difference relative to DMSO controls) [3]: 0.837

NC(=NC(=O)c1nc(Cl)c(N)nc1N)NCc1ccc(Cl)c(Cl)c1 [DICHLOROBENZAMIL]
Log2 (fold) of luciferase activity relative to DMSO controls [1]: −0.116
Fold (luciferase activity relative to DMSO controls) [2]: 0.923 fold

CCCCC/C=C\C/C=C\C/C=C\CCCCCCC(=O)O [DIHOMO-GAMMA-LINOLENIC ACID]
Log2 (fold) of luciferase activity relative to DMSO controls [1]: 0.323
Fold (luciferase activity relative to DMSO controls) [2]: 1.251 fold

CCCCCCCCCCCCCCC[C@@H](O)[C@@H](N)CO [DIHYDROSPHINGOSINE]
Log2 (fold) of luciferase activity relative to DMSO controls [1]: 0.000
Fold (luciferase activity relative to DMSO controls) [2]: 1.000 fold

c1ccc2c(Cc3c[nH]c4ccccc34)c[nH]c2c1 [DIINDOLYLMETHANE]
Log2 (fold) of luciferase activity relative to DMSO controls [1]: 0.465
Fold (luciferase activity relative to DMSO controls) [2]: 1.381 fold

COc1ccc([C@@H]2Sc3ccccc3N(CCN(C)C)C(=O)[C@@H]2OC(C)=O)cc1 [DILTIAZEM]
Log2 (fold) of luciferase activity relative to DMSO controls [1]: −0.205
Fold (luciferase activity relative to DMSO controls) [2]: 0.868 fold

CC/C=C\C/C=C\C/C=C\C/C=C\C/C=C\C/C=C\CCC(=O)O [DOCOSAHEXAENOIC ACID (22:6 n-3)]
Log2 (fold) (luciferase activity, log2 of the fold difference relative to DMSO controls) (assessed three days later): −0.248
Fold (luciferase activity, fold difference relative to DMSO controls) [3]: 0.842

CC/C=C\C/C=C\C/C=C\C/C=C\C/C=C\CCCCCC(=O)O [DOCOSAPENTAENOIC ACID]
Log2 (fold) of luciferase activity relative to DMSO controls [1]: −0.161
Fold (luciferase activity relative to DMSO controls) [2]: 0.895 fold

CC/C=C\C/C=C\C/C=C\CCCCCCCCCCCC(=O)O [DOCOSATRIENOIC ACID (22:3 n-3)]
Log2 (fold) of luciferase activity relative to DMSO controls [1]: −0.055
Fold (luciferase activity relative to DMSO controls) [2]: 0.963 fold
